# Entries after “also recorded” stand apart in the source; their conditions may differ.
# Key:
# [1] = tested on: chinchilla model of SNHL; assay: R-PIA on round window membrane, chinchilla 4 kHz octave band noise, evoked potential hearing thresholds; format: in vivo
# Description: FIG. 1 is a series of graphs which depicts our experimental work with R-PIA in a chinchilla model of SNHL. A 10^−4 M solution of R-PIA was placed on the round window membrane of chinchillas for thirty minutes and saline was placed as a control on round window membrane in the opposite-ear. After thirty minutes the fluids were removed, the surgical sites closed and the animals were exposed to 4 kHz octave band noise at 105 dB SPL for thirty minutes.
# [2] = tested on: inner and outer hair cells; assay: R-PIA on round window membrane, chinchilla 4 kHz octave band noise, inner and outer hair cell losses; format: in vivo; conditions: 10^-4 M on round window membrane
# Description: FIG. 1 is a series of graphs which depicts our experimental work with R-PIA in a chinchilla model of SNHL. A 10^−4 M solution of R-PIA was placed on the round window membrane of chinchillas for thirty minutes and saline was placed as a control on round window membrane in the opposite-ear. After thirty minutes the fluids were removed, the surgical sites closed and the animals were exposed to 4 kHz octave band noise at 105 dB SPL for thirty minutes. […] The details of this study have been submitted and recently accepted for publication in a peer-reviewed journal (5).
# [3] = tested on: inner and outer hair cells; assay: R-PIA on round window membrane, simulated M-16 impulse noise, missing hair cells; format: in vivo, Chinchilla; conditions: 10^-4 M on round window membrane 30 min, 50-salvo volleys, vs saline control ear
# [4] = tested on: noise induced permanent hearing loss; assay: R-PIA on round window membrane, impulse noise, frequency specific evoked potential threshold shifts; format: in vivo, Chinchilla; conditions: out to 20 days post-exposure
# Description: FIGS. 3 & 4 illustrate data from Chinchilla exposed to simulated M-16 rifle fire impulse noise (50-salvo volleys). These animals received R-PIA treatment as outlined above (by the application of a dilute (10^−4 molar) solution of R-PIA directly onto the round window membrane for thirty minutes) with saline as a control on the round window membrane of the opposite ear. FIGS. 3 and 4 depict the percentage of missing inner and outer hair cells quantified in the inner ears of animals euthanized after the noise exposure. […] The results of both these tests show the frequency specific evoked potential threshold shifts from the same Chinchilla prior to and after noise exposure (out to 20 days post-exposure).
# [5] = tested on: noise-induced cochlear damage; conditions: cited from earlier work
# [6] = tested on: idiopathic sensorineural hearing loss; assay: Treatment of individuals with sudden idiopathic sensorineural hearing loss (oral conventional therapy, then topical round window microcatheter); format: in vivo, human; conditions: one patient each
# Description: FIG. 7 is a bar graph comparing the speech reception threshold values of an individual who suffered an idiopathic sensorineural hearing loss before and after administration of a topical rescue agent.
# FIG. 8 is a bar graph comparing the word discrimination scores of an individual who suffered an idiopathic sensorineural hearing loss before and after administration of a topical rescue agent.
# FIG. 9 is a bar graph comparing the speech reception threshold values of another individual who suffered an idiopathic sensorineural hearing loss before and after administration of a topical rescue agent.
# FIG. 10 is a bar graph comparing the word discrimination scores of another individual who suffered an idiopathic sensorineural hearing loss before and after administration of a topical rescue agent.
# A Army Sergeant noted the sudden onset of a severe hearing loss and tinnitus in their left ear. They were initially given one week of conventional therapy with oral prednisone and a trial of close observation. They had no response to this treatment regimen and two weeks after experiencing the hearing loss they were treated with topical methylprednisolone. The topical methylprednisolone was administered in a round window microcatheter (IntraEar Corporation, Denver, Colo.) via a method developed by our group. The methylprednisolone was given in a concentration of 125 mg/ml. […]
# [7] = tested on: noise induced hearing loss; assay: Oral rescue agent in an individual with noise induced hearing loss; format: in vivo, human; conditions: 70 mg/kg by mouth, then 35 mg/kg QID for seven days; one patient
# Description: FIG. 5 is a bar graph comparing the speech reception threshold values of an individual who suffered noise induced hearing loss before and after administration of an oral rescue agent. FIG. 6 is a bar graph comparing the word discrimination scores of an individual who suffered noise induced hearing loss before and after administration of an oral rescue agent. An Army Infantryman lost […] hearing protection in one ear during a live fire training evolution. […] received treatment in the form of ant initial dose of 70 mg/kg of L-N-acetyl cysteine (LNAC) by mouth followed by 35 mg/kg LNAC by mouth QID for seven days.
smiles,measurement,setting,value
"C[C@H](Cc1ccccc1)Nc1ncnc2c1ncn2[C@@H]1O[C@H](CO)[C@@H](O)[C@H]1O [R-PIA, R-N6-Phenylisopropyl adenosine]",permanent hearing threshold shift / permanent hearing loss,"[1]; 10^-4 M on round window membrane 30 min, vs saline control ears","significantly less permanent hearing threshold shift in R-PIA treated ears compared to saline treated ears at 4, 8 and 16 kHz; also recorded: significant reduction in permanent hearing loss"
same,recovery of hearing thresholds,"[1]; 10^-4 M on round window membrane 30 min before 4 kHz octave band noise 105 dB SPL, days 0, 1, 2, 4 and 20, vs saline ear",faster and more complete recovery of hearing thresholds
same,inner hair cell losses,[2]; both conditions,minimal
same,reduction in outer hair cell loss,[2]; vs saline control ears,fourfold reduction; also recorded: four-fold reduction
same,inner and outer hair cell loss,[3],significant reduction of inner and outer hair cell loss
same,permanent hearing loss,[4]; vs ears that received no treatment,reduction of permanent hearing loss in R-PIA treated ears as compared to ears that received no treatment
same,permanent hearing loss,"[4]; vs saline treated (control) ears, variety of frequencies",reduction of permanent hearing loss in R-PIA treated ears as compared to saline treated (control) ears
"CCCCS(=N)(=O)CCC(N)C(=O)O (stereo not drawn) [BSO, buthionine sulfoximine]",hair cell damage and hearing loss associated with noise exposure,[5]; inhibition of GSH synthesis,enhances the hair cell damage and hearing loss associated with noise exposure
Oc1ncnc2[nH]ncc12 [allopurinol],cochlear action potential and cochlear microphonic threshold shifts,[5]; given before and during damaging noise exposure,attenuate cochlear action potential and cochlear microphonic threshold shifts
C[C@]12C=CC(=O)C=C1CC[C@@H]1[C@@H]2C(=O)C[C@@]2(C)[C@H]1CC[C@]2(O)C(=O)CO [prednisone],response of sudden hearing loss to conventional therapy,[6],no response
"CC(=O)N[C@@H](CS)C(=O)O [LNAC, L-N-acetyl cysteine]",speech reception threshold,[7],complete recovery
same,word discrimination ability,[7],complete recovery
